PubChem BioAssay (NCI)
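Interpolation was linear, between the two tested concentrations surrounding the appropriate level; five concentrations were tested over 48 hours in 96-well plates. At the GI50, growth is halved. Definition used: TGI = concentration required for complete inhibition of growth.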

Tests used:
Experiment in all cases: NCI-60 cell line screen, 48 h
SR leukemia = system: SR leukemia
UO-31 renal = system: UO-31 renal
TK-10 renal = system: TK-10 renal
MALME-3M melanoma = system: MALME-3M melanoma
786-0 renal = system: 786-0 renal
PC-3 prostate = system: PC-3 prostate
SF-268 CNS = system: SF-268 CNS
UACC-257 melanoma = system: UACC-257 melanoma
HOP-92 NSCLC = system: HOP-92 NSCLC
A498 renal = system: A498 renal
HL-60(TB) leukemia = system: HL-60(TB) leukemia
SW-620 colon = system: SW-620 colon
K-562 leukemia = system: K-562 leukemia
HT29 colon = system: HT29 colon
RXF 393 renal = system: RXF 393 renal
MOLT-4 leukemia = system: MOLT-4 leukemia
OVCAR-4 ovarian = system: OVCAR-4 ovarian
SF-539 CNS = system: SF-539 CNS
DU-145 prostate = system: DU-145 prostate
HCC-2998 colon = system: HCC-2998 colon
LOX IMVI melanoma = system: LOX IMVI melanoma
T-47D breast = system: T-47D breast
HCT-116 colon = system: HCT-116 colon
HCT-15 colon = system: HCT-15 colon
IGROV1 ovarian = system: IGROV1 ovarian
NCI-H522 lung = system: NCI-H522 lung
SK-OV-3 ovarian = system: SK-OV-3 ovarian
NCI/ADR-RES ovarian = system: NCI/ADR-RES ovarian
KM12 colon = system: KM12 colon
CAKI-1 renal = system: CAKI-1 renal
MDA-MB-231 breast = system: MDA-MB-231 breast
A549 NSCLC = system: A549 NSCLC
SNB-19 CNS = system: SNB-19 CNS
U251 CNS = system: U251 CNS
UACC-62 melanoma = system: UACC-62 melanoma
OVCAR-5 ovarian = system: OVCAR-5 ovarian
EKVX NSCLC = system: EKVX NSCLC
MCF7 breast = system: MCF7 breast
ACHN renal = system: ACHN renal
SK-MEL-28 melanoma = system: SK-MEL-28 melanoma
M14 melanoma = system: M14 melanoma
CCRF-CEM leukemia = system: CCRF-CEM leukemia
NCI-H460 lung = system: NCI-H460 lung
SN12C renal = system: SN12C renal
BT-549 breast = system: BT-549 breast
NCI-H23 lung = system: NCI-H23 lung
HOP-62 NSCLC = system: HOP-62 NSCLC
MDA-MB-435 = system: MDA-MB-435
HS 578T breast = system: HS 578T breast
SF-295 CNS = system: SF-295 CNS
NCI-H226 lung = system: NCI-H226 lung
SK-MEL-5 melanoma = system: SK-MEL-5 melanoma
SNB-75 CNS = system: SNB-75 CNS
SK-MEL-2 melanoma = system: SK-MEL-2 melanoma
RPMI-8226 leukemia = system: RPMI-8226 leukemia

COc1ccc(N(C)c2cc(C#N)nc3ccccc23)cc1N was tested, and the GI50 (SR leukemia) was < 10 nM, the TGI (SR leukemia) was > 73.9 µM and the GI50 (UO-31 renal) was < 10 nM. For the same molecule, the TGI (UO-31 renal) was > 100 µM, the GI50 (TK-10 renal) was 19.6 µM and the TGI (TK-10 renal) was > 100 µM. The GI50 (MALME-3M melanoma) was < 10 nM, the TGI (MALME-3M melanoma) was > 84.6 µM and the GI50 (786-0 renal) was < 10 nM. The TGI (786-0 renal) was > 100 µM, the GI50 (PC-3 prostate) was < 10 nM and the TGI (PC-3 prostate) was > 100 µM. For the same molecule, the GI50 (SF-268 CNS) was < 10 nM, the TGI (SF-268 CNS) was > 100 µM and the GI50 (UACC-257 melanoma) was 8.62 µM. For the same molecule, the TGI (UACC-257 melanoma) was > 100 µM, the TGI (HOP-92 NSCLC) was > 76.2 µM and the GI50 (A498 renal) was 83.4 µM. For the same molecule, the TGI (A498 renal) was > 100 µM, the GI50 (HL-60(TB) leukemia) was < 10 nM and the TGI (HL-60(TB) leukemia) was < 10 nM. The GI50 (SW-620 colon) was < 10 nM, the TGI (SW-620 colon) was > 100 µM and the GI50 (K-562 leukemia) was < 10 nM. For the same molecule, the TGI (K-562 leukemia) was > 100 µM, the GI50 (HT29 colon) was < 10 nM and the TGI (HT29 colon) was < 10 nM. For the same molecule, the GI50 (RXF 393 renal) was < 10 nM, the TGI (RXF 393 renal) was > 100 µM and the GI50 (MOLT-4 leukemia) was < 10 nM. For the same molecule, the TGI (MOLT-4 leukemia) was > 60.6 µM, the GI50 (OVCAR-4 ovarian) was 3.69 µM and the TGI (OVCAR-4 ovarian) was > 100 µM. The GI50 (SF-539 CNS) was < 10 nM, the TGI (SF-539 CNS) was < 10 nM and the GI50 (DU-145 prostate) was < 10 nM. For the same molecule, the TGI (DU-145 prostate) was > 100 µM, the GI50 (HCC-2998 colon) was < 10 nM and the TGI (HCC-2998 colon) was 131 nM. The GI50 (LOX IMVI melanoma) was < 10 nM, the TGI (LOX IMVI melanoma) was > 64.2 µM and the GI50 (T-47D breast) was 7.61 µM. For the same molecule, the TGI (T-47D breast) was > 100 µM, the GI50 (HCT-116 colon) was < 10 nM and the TGI (HCT-116 colon) was 1530 nM. The GI50 (HCT-15 colon) was < 10 nM, the GI50 (IGROV1 ovarian) was < 10 nM and the TGI (IGROV1 ovarian) was > 100 µM. The GI50 (NCI-H522 lung) was < 10 nM, the TGI (NCI-H522 lung) was < 10 nM and the GI50 (SK-OV-3 ovarian) was < 18.7 nM. The TGI (SK-OV-3 ovarian) was > 100 µM, the GI50 (NCI/ADR-RES ovarian) was < 10 nM and the TGI (NCI/ADR-RES ovarian) was < 10 nM. For the same molecule, the GI50 (KM12 colon) was < 10 nM, the TGI (KM12 colon) was > 45.4 µM and the GI50 (CAKI-1 renal) was < 10 nM. The TGI (CAKI-1 renal) was > 100 µM, the GI50 (MDA-MB-231 breast) was < 10 nM and the TGI (MDA-MB-231 breast) was < 10 nM. For the same molecule, the GI50 (A549 NSCLC) was < 10 nM, the TGI (A549 NSCLC) was > 100 µM and the GI50 (SNB-19 CNS) was < 10 nM. For the same molecule, the TGI (SNB-19 CNS) was > 100 µM, the GI50 (U251 CNS) was < 10 nM and the TGI (U251 CNS) was > 100 µM. The GI50 (UACC-62 melanoma) was < 10 nM, the TGI (UACC-62 melanoma) was > 100 µM and the GI50 (OVCAR-5 ovarian) was < 10 nM. For the same molecule, the TGI (OVCAR-5 ovarian) was > 100 µM, the GI50 (EKVX NSCLC) was < 10 nM and the TGI (EKVX NSCLC) was > 100 µM. The GI50 (MCF7 breast) was < 10 nM, the TGI (MCF7 breast) was > 100 µM and the GI50 (ACHN renal) was < 10 nM. For the same molecule, the TGI (ACHN renal) was > 100 µM, the TGI (SK-MEL-28 melanoma) was > 100 µM and the GI50 (M14 melanoma) was < 10 nM. The TGI (M14 melanoma) was > 100 µM, the GI50 (CCRF-CEM leukemia) was < 10 nM and the TGI (CCRF-CEM leukemia) was > 37.1 µM. The GI50 (NCI-H460 lung) was < 10 nM, the TGI (NCI-H460 lung) was 4.56 µM and the GI50 (SN12C renal) was < 10 nM. The TGI (SN12C renal) was > 34.3 µM, the GI50 (BT-549 breast) was < 10 nM and the GI50 (NCI-H23 lung) was < 10 nM. For the same molecule, the TGI (NCI-H23 lung) was > 54.1 µM, the GI50 (HOP-62 NSCLC) was < 10 nM and the TGI (HOP-62 NSCLC) was > 100 µM. For the same molecule, the GI50 (MDA-MB-435) was < 10 nM, the TGI (MDA-MB-435) was < 10 nM and the GI50 (HS 578T breast) was < 10 nM. The TGI (HS 578T breast) was > 100 µM, the GI50 (SF-295 CNS) was < 10 nM and the TGI (SF-295 CNS) was > 100 µM. The GI50 (NCI-H226 lung) was < 10 nM, the TGI (NCI-H226 lung) was > 100 µM and the GI50 (SK-MEL-5 melanoma) was < 10 nM. The TGI (SK-MEL-5 melanoma) was < 10 nM, the GI50 (SNB-75 CNS) was < 10 nM and the TGI (SNB-75 CNS) was > 67.7 µM. The GI50 (SK-MEL-2 melanoma) was < 10 nM, the GI50 (RPMI-8226 leukemia) was < 10 nM and the TGI (RPMI-8226 leukemia) was > 54.1 µM.
